This is an account of results in patent US20250161238A1, “NMDAR Antagonists Prevent Ageing and Aging-Associated Conditions and Diseases Through Increasing 20S Proteasome Activity” (priority 2022, published 2025).

Each structure is given as a SMILES string.

The conditions of data set [1]: humans, 20 mg per day; cited from earlier work.
Another data set concerns mice. The data set is described as follows: Weight test (forelimb grip) in aged mice. Format: in vivo. Conditions: mice at 22 months. The text has this: Another grip test that measures muscle strength more finely is forelimb grip strength test. Many biomarkers related to aging have been identified in human. Importantly, the grip tests performed on humans has been defined as a highly predicitive indicator that can show disabilities, diseases and deaths that may occur due to aging (Iconaru et al., 2018; Sousa-Santos and Amaral, 2017) In this test a mouse is held by the middle base of the tail and lower it to allow it to grasp the weight which is a ball of tangled fine gauge stainless steel wire. This test is carried out by increasing the weight, investigating the weight that the mouse can carry or keeping the weight constant and how long the mouse can carry the weight.
The experimental protocols were approved by the Ethics Committee of Ankara University, Faculty of Medicine, Medical Sciences Experimental Research and Application Center (Date: Dec. 11, 2019 and Decision number: 2019-22-189). Adult (12-mounts-old) C57BL/6 mice (5 for each group) were used. The mice were housed at the Experimental Animal Research Laboratory of Ankara University Faculty of Medicine. […] Tests related to locomotor activities of the mice were recorded and available.
Weight test use to measure muscle strength (Deacon, 2013). […] The experiment was recorded by camera for a maximum of 5 minutes. Total griping time was evaluated.

The test system of data set [2] is C. elegans. Briefly: NADP+ and NADPH+ amount in C. elegans. Format: in vivo. Conditions: 19th day. From the text:
Therefore, the amount of NADP+ and NADPH+ were investigated in C. elagans.

Data set [3] relates to C. elegans. The data set is described as follows: C. elegans lipid accumulation by Nile Red staining. The data set is classed as in vivo. The text has this: In the next study, the effects of NMDAR blocker on lipid accumulation and central body fat and thus the fat metabolism in C. elagans was investigated. As mentioned above Nile red is a lipophilic stain which stain intracellular lipid droplets in cell. Therefore, in the presence of memantine and control C. elegans groups on the 19th day, the amount of fat in the living organisms was investigated by Nile Red staining.

Data set [4] has as its system human mesenchymal stem cells. The data set is described as follows: Lipid droplet amount in mesenchymal stem cells. Conditions: day 14. Format: cell-based. The text has this:
Cell were harvested at day 14 for western blot and the protein expression amounts of the differentiation markers cd44, cd73, and cd90 were investigated. […] Another indicator of the stem cell differentiation is the determination of the amounts of lipid droplet in the cell. Fourteen-day cell passage is caused to increase lipid in the cell. It was observed that memantine treatment has prevented the amount of lipid droplet (FIG. 36D).

The test system of data set [5] is C. elegans. The data set is described as follows: C. elegans movements (non-moving, swimming). The data set is classed as in vivo. Conditions: 18th day. As to the method: Therefore, the movements of the C. elegans grown at 20° C. on standard nematode growth medium(NGM) plates shaked at constant speed at 200 rpm were recorded for 5 minutes on the 18th day. All C. elegans in plate well were individually followed and counted by three different eyes for 5 minutes. […] One of the basic movement of C. elegans in liquid is crawling while the other is swimming. Previously described that swimming is more energetically demanding for C. elegans than the crawling motion. In addition it was stated that having the ability to swim is related to locomotory fatigue, muscle mitochondrial oxidation, a transcriptional oxidative stress response, and changes in carbohydrate and fat metabolism. It was also known that the swimming ability of C. elegans is also related to pharyngeal, intestinal, neuronal functions and strong muscle into old age.
To sterilize the animals 300 μL of a 6 mM Fluorodeoxyuridine (FUDR) stock solution was added to 10 ml medium. During the monitoring of their life span, the worms were kept by shaking at a constant speed of 200 rpm. Locomotor activities of the worms were recorded and available.

The next data set has as its system LC3. Briefly: Autophagy: LC3 turnover and LC3 puncta in HepG2 stably expressing LC3. The data set is classed as cell-based, human. The following applies: HepG2 cell stably expressing LC3. The text has this: One of the most experimentally straightforward method to monitor autophagic activity is the detection of microtubule-associated protein light chain 3 (LC3) protein processing. LC3 is the only known protein that is specifically associated with all types of autophagic membranes, including phagophore, autophagosome and autolysosome (a hybrid organelle formed by fusion of the autophagosome and lysosome). LC3 is specifically associated with the autophagosome. Upon the autophagy induction, the cytosolic LC3 (LC3-I) is conjugated to phosphatidylethanolamine (PE) to form lipidated LC3 (LC3-II). LC3-II binds to the expanding isolation membrane and remains bounded to complete autophagosome. Therefore, the amount of LC3-II correlates well with the number of autophagosomes, which is widely used as a marker for the autophagosome. Autophagy is a multi-step process which includes not just the formation of autophagosomes, but most importantly, the flux through the entire system, including the degradation of LC3-II upon fusion with lysosomes. Therefore, the expected result is that the LC3-II protein is degraded for complete autophagy. […] However, total amount of LC3 (LC3-I plus LC3II) was not changed.
The other basic protocol for the outophagy detection is monitoring the number of autophagosomes by visualizin LC3 puncta using flourescence microscopy. […]

`CC12CC3CC(C)(C1)CC(N)(C3)C2` [memantine, 3,5-dimethyladamantan-1-amine]: the serum levels in data set [1] is 500 to 1000 nM. Also, the “forelimb grip: time holding a fixed weight” value in the data set on mice is “four times longer”. In addition, the “NADP+ compared to C. elegans without treatment” value in the data set on C. elegans [2] is 2 folds. Moreover, the “lipid accumulation in control group compared to treated” value in the data set with C. elegans [3] (19th day) and with C. elegans [3] (20th day) was “more than 2 fold” throughout. Besides, the “amount of lipid droplet” value in data set [4] is recorded as “prevented”. Besides, in the data set with C. elegans [5], the “number of C. elegans that can swim compared to without treatment” value was 2,4 times.
In the case of `CNC1(c2ccccc2Cl)CCCCC1=O` (stereo not drawn) [ketamin, 2-(2-chlorophenyl)-2-(methylamino)-cyclohexanone], in the data set on LC3, the “total amount of LC3 (LC3-I plus LC3II)” value is recorded as “not changed”. Further, the LC3-II amount result in the data set with LC3 (western blot) is “increase”.
